Source: US20140275010A1, “QUATERNARY SALTS” (priority 2013, published 2014)

Assays:
Assay type in all cases: cell-based
[1] = test system: WiDr cells: Colon cancer cells (wildtype SF3B1); test: Cell viability assay (CellTiter-Glo), WiDr cells; conditions: 72 hr
Protocol: (§1) Cells are seeded in 96-well plate with 2000 cells/100 uL/well and incubated overnight. Spent media was removed and fresh media containing compound (100 uL/well) with appropriate 9 concentrations are added. Each compound was treated in duplicate or triplicate manner at each concentration. DMSO concentration was adjusted to be 0.1%. Another plate was dedicated as Tz plate which was added 0.1% DMSO in media (100 uL/well) followed by CellTiter-Glo® (Promega corp., 50 uL/well) for ATP measurement as a surrogate of cell viability. Values from this plate are used as Tz. Compound treated plates are incubated for 72 hr at 37 C. Then, CellTiter-Glo® (50 uL/well) was added and ATP level was measured. Values from compound treated wells are used as Ti and DMSO treated wells are used as C.
(§2) Percentage growth inhibition was calculated as:
(§3) [(Ti−Tz)/(C−Tz)]×100 for concentrations for which Ti>/=Tz
(§4) [(Ti−Tz)/Tz]×100 for concentrations for which Ti<Tz.
(§5) *[time zero, (Tz), control growth (C), and test growth in the presence of drug with dose (Ti)] Growth inhibition of 50% (GI50) was calculated from [(Ti−Tz)/(C−Tz)]×100=50, which was the drug concentration resulting in a 50% reduction in the net protein increase in control cells during the drug incubation. The LC50 (concentration of drug resulting in a 50% reduction in the measured value at the end of the drug treatment as compared to that at the beginning) indicating a net loss of cells following treatment was calculated from [(Ti−Tz)/Tz]×100=−50.
(§6) Emax was defined as highest growth inhibition that particular compound achieved in tested dose range.

[2] = test system: Panc 05.04 cells: Pancreatic cancer cells (Q699H and K700E mutations in SF3B1); test: Cell viability assay (CellTiter-Glo), Panc 05.04 cells; conditions: 72 hr; for Gl50 Panc 05.04: Panc 05.04 pancreatic cancer cells, SF3B1 Q699H and K700E, CellTiter-Glo; for Emax Panc 05.04: highest growth inhibition achieved in tested dose range
Protocol: as §1, §2, §3, §4, §5, §6

[3] = test system: WiDr-R cells: Colon cancer cells (chemically-induced SF3B1 mutant which is resistant to E7107 (R1074H mutation)); test: Cell viability assay (CellTiter-Glo), WiDr-R cells; conditions: 72 hr
Protocol: as §1, §2, §3, §4, §5, §6

Structure (SMILES) | Gl50 WiDr [1] [nM] | Gl50 Panc 05.04 [2] [nM] | Emax Panc 05.04 [2] [%] | Gl50 WiDr-R [3] [nM]
CC[C@H](O)[C@@H](C)[C@H]1O[C@@H]1C[C@H](C)/C=C/C=C(\C)[C@H]1OC(=O)C[C@H](O)CC[C@@](C)(O)[C@@H](OC(=O)NCCC[N+]2(C)CCOCC2)/C=C/[C@@H]1C.[I-] [Cpd. 4] | 67.4 | 41.5 | −75 | 
CC[C@H](O)[C@@H](C)[C@H]1O[C@@H]1C[C@H](C)/C=C/C=C(\C)[C@H]1OC(=O)C[C@H](O)CC[C@@](C)(O)[C@@H](OC(=O)NCCC[N+](C)(C)C)/C=C/[C@@H]1C.[I-] [Cpd. 5] | 176.0 | 120.8 | −79 | >10000
CC[C@H](O)[C@@H](C)[C@H]1O[C@@H]1C[C@H](C)/C=C/C=C(\C)[C@H]1OC(=O)C[C@H](O)CC[C@@](C)(O)[C@@H](OC(=O)N2CC[N+](C)(C3CCCCC3)CC2)/C=C/[C@@H]1C.[I-] [Cpd. 6] | 227.0 | 1593 | −8.1 | >1000
CC[C@H](O)[C@@H](C)[C@H]1O[C@@H]1C[C@H](C)/C=C/C=C(\C)[C@H]1OC(=O)C[C@H](O)CC[C@@](C)(O)[C@@H](OC(=O)N2CCC[N+](C)(C)CC2)/C=C/[C@@H]1C.[I-] [Cpd. 8] | 568.0 | 431.6 | −74 | >1000
CC[C@H](O)[C@@H](C)[C@H]1O[C@@H]1C[C@H](C)/C=C/C=C(\C)[C@H]1OC(=O)C[C@H](O)CC[C@@](C)(O)[C@@H](OC(=O)N2CCC[N+](C)(C3CCCCC3)CC2)/C=C/[C@@H]1C.[I-] (stereo partly shown) [Cpd. 11] | 958.0 | 410.7 | −87 | >1000
CC[C@H](O)[C@@H](C)[C@H]1O[C@@H]1C[C@H](C)/C=C/C=C(\C)[C@H]1OC(=O)C[C@H](O)CC[C@@](C)(O)[C@@H](OC(=O)N2CC3(C2)C[N+](C)(C2CCCCCC2)C3)/C=C/[C@@H]1C.[I-] [Cpd. 12] | 106.0 | 79.2 | −89 | >1000
CC[C@H](O)[C@@H](C)[C@H]1O[C@@H]1C[C@H](C)/C=C/C=C(\C)[C@H]1OC(=O)C[C@H](O)CC[C@@](C)(O)[C@@H](OC(=O)N2CCC([N+]3(C)CCCC3)CC2)/C=C/[C@@H]1C.[I-] [Cpd. 13] | 44.1 | 80.4 | −61 | >1000
CC[C@H](O)[C@@H](C)[C@H]1O[C@@H]1C[C@H](C)/C=C/C=C(\C)[C@H]1OC(=O)C[C@H](O)CC[C@@](C)(O)[C@@H](OC(=O)N2CCC([N+]3(C)CCCCC3)CC2)/C=C/[C@@H]1C.[I-] [Cpd. 14] | 51.4 | 53.3 | −70 | >1000
CC[C@H](O)[C@@H](C)[C@H]1O[C@@H]1C[C@@](C)(O)/C=C/C=C(\C)[C@H]1OC(=O)C[C@H](O)CC[C@@](C)(O)[C@@H](OC(=O)N2CC[N+](Cc3ccccc3)(C3CCCCCC3)CC2)/C=C/[C@@H]1C.[Br-] [Cpd. 18] | 162 | 139.2 | −55 | 
C=CC[N+]1(C2CCCCCC2)CCN(C(=O)O[C@H]2/C=C/[C@H](C)[C@@H](/C(C)=C/C=C/[C@](C)(O)C[C@H]3O[C@@H]3[C@H](C)[C@@H](O)CC)OC(=O)C[C@H](O)CC[C@@]2(C)O)CC1.[Br-] [Cpd. 19] | 551 | 808.7 | −45 | 
C=CC[N+]1(C2CCCCCC2)CCN(C(=O)O[C@H]2/C=C/[C@H](C)[C@@H](/C(C)=C/C=C/[C@](C)(O)C[C@H]3O[C@@H]3[C@H](C)[C@@H](O)CC)OC(=O)C[C@H](O)CC[C@@]2(C)O)CC1.[I-] [Cpd. 20] | 289 | 316.9 | −67.5 | 
